The record followed here is patent US20060106102A1, “Napththalene derivatives which inhibit the cytokine or biological activity of microphage migration inhibitory factor (mif)” (priority 2002, published 2006).

Usually EC50 stands for the concentration that produces a half-maximal response.

Assay [1] has as its system murine endotoxic shock model (LPS). As to the kind of experiment: murine endotoxic shock model, serum cytokines by ELISA. Particulars: mice. The assay is classed as in vivo. Here is the method: The activity of 6,7-dihydroxynaphthalene-3-sulfonic acid (compound 6) was studied in the murine endotoxic shock model. This model has been previously shown to be dependent on MIF (35). […] Endotoxaemia was induced by intra-peritoneal injection of lipopolysaccharide (LPS) (15 mg/kg) in 400 μl saline. Mice were treated with a saline solution (control) only, a saline solution and LPS, or LPS and 6,7-dihydroxynaphthalene-2-sulfonic acid (compound 6) at a dose of 15 mg/kg body weight by intra-peritoneal injection at 24 hours, 12 hours and 1 hour before intra-peritoneal LPS injection. After 1.5 or 6 hours mice were humanely killed by CO2 inhalation then neck dislocation. Serum was obtained from blood obtained by cardiac puncture prior to death and measured for cytokines including interleukin 1 (IL-1) and interleukin 6 (IL-6) by ELISA. The production of IL-1 and IL-6 has been previously shown to be dependent on MIF (36).
The effect of compounds was further tested under a variety of conditions in animals exposed to endotoxic shock induced as above by the injection of 15 mg/kg LPS by intraperitoneal injection. In each case, compounds were administered by intraperitoneal injection at a dose of 15 mg/kg. Compound administration was associated with reductions in serum cytokine concentration under a variety of administration regimens.

The subject of assay [2] is IL-1-induced COX-2 expression. In words: IL-1-induced COX-2 expression in S112 human dermal fibroblasts (MIF-dependent event), flow cytometry. The assay is classed as cell-based. Put shortly: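 Human dermal fibroblasts seeded at 10^5 cells/ml in RPMI/0.1% BSA for 18 h, then IL-1 stimulated with or without compound. Saponin-permeabilised cells stained with anti-COX-2 mAb plus FITC secondary; flow cytometry MFI, negative control subtracted, duplicates. Result is % inhibition of IL-1-induced MFI, mean or mean±SEM.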

Assay [3] relates to LPS-induced IL-1 release from peritoneal macrophages. In words: LPS-induced interleukin 1 release from murine peritoneal macrophages, ELISA. The assay is classed as cell-based, C57BL6/J mice. As to the method:
C57BL6/J male mice were injected intraperitoneally with 2ml of thioglycollate. Five (5) days later peritoneal macrophages were collected by ravaging the peritoneum of anaesthetized mice with 3 ml of cold Hanks buffered saline solution. Cells from several mice were pooled, washed and re-suspended in DMEM supplemented with 5% FCS. Cells were plated in 96 well plastic tissue culture plates at 1×10^5 cells/well. Cells were treated with compound or vehicle for 1 hour in a 5% CO2 incubator at 37° C. Cells were then treated with LPS (10 ng/ml) and incubated for 24 hours. After 24 hours, 50 μl of supernatant from each well was carefully removed and transferred to ELISA plates. The concentration of interleukin 1 (IL-1 ) was measured by ELISA. The concentration of compound at which LPS-induced cytokine release was suppressed by 50% compared to vehicle-only-treated cells (EC50) was calculated using Prism® software. FIG. 13 and Table 8 provide the data for compound 6 tested in this assay.
Background: An ELISA detects its analyte on a solid surface through an enzyme-linked reagent.

Assay [4] has as its system recombinant human macrophage migration inhibitory factor (MIF)-induced proliferation of S112 human dermal fibroblasts. In words: MIF-induced proliferation of S112 human dermal fibroblasts, 3H-thymidine incorporation. The assay is classed as cell-based. In general terms: Incorporation of labelled thymidine or its analogues reports DNA synthesis.

“And” between values parts separate entries of the source, which are not always exact repeats. Equal values may be shown once.

Take `O=S(=O)(O)c1ccc2cc(O)c(O)cc2c1` [Compound 6, 6,7-dihydroxynaphthalene-2-sulfonic acid]: the “Serum TNF, LPS plus compound” value in assay [1] (compound 15 mg/kg i.p. at −18 h before LPS 15 mg/kg i.p.) is 3970 ± 2565 pg/mL. Also, in assay [1] (compound 15 mg/kg i.p. at −24 h, −1 h before LPS 15 mg/kg i.p.), the “Serum IL-6, LPS plus compound” value was 150 ± 19 ng/mL and 104 ± 11 ng/mL. Further, in assay [1] (compound 15 mg/kg i.p. at −24 h, −12 h, −1 h before LPS 15 mg/kg i.p.), the “serum IL-1, LPS plus compound” value is 257 ± 70 ng/mL. Moreover, in assay [2] (0.01, 0.1, 1.0, 10 and 50 μM), the “inhibition of IL1-induced COX-2 expression, dose response (FIG. 3)” value was “Dose-dependent inhibition”. In addition, in assay [2] (Homo sapiens, Fibroblast, compound 1 uM, IL-1 0.1 ng/ml, 6 hours, S112 cells, read-out: % inhibition of IL-1-induced COX2 expression (Effect)), the inhibition at 1 µM is 16.4%. For the same molecule, the inhibition at 10 µM in assay [2] (Homo sapiens, Fibroblast, compound 10 uM, IL-1 0.1 ng/ml, 6 hours, S112 cells, read-out: % inhibition of IL-1-induced COX2 expression (Effect)) amounted to 22.4%. In addition, the inhibition at 25 µM in assay [2] (Homo sapiens, Fibroblast, compound 25 uM, IL-1 0.1 ng/ml, 6 hours, S112 cells, read-out: % inhibition of IL-1-induced COX2 expression (Effect)) was found to be 21.3%. Further, the inhibition at 50 µM in assay [2] (Homo sapiens, Fibroblast, compound 50 uM, IL-1 0.1 ng/ml, 6 hours, S112 cells, read-out: % inhibition of IL-1-induced COX2 expression (Effect)) came to 25.7%. For the same molecule, the inhibition at 100 µM in assay [2] (Homo sapiens, Fibroblast, compound 100 uM, IL-1 0.1 ng/ml, 6 hours, S112 cells, read-out: % inhibition of IL-1-induced COX2 expression (Effect)) is 24.4%. Also, the “% inhibition (IL-1 induced COX-2 expression)” value in assay [2] (Table 2 experiment 1: compound alone, 50 μM) is reported as 38.0%. Besides, in assay [3] (LPS 10 ng/ml, p<0.02), the “inhibition of macrophage IL-1 release, dose-response (FIG. 13)” value is “marked and statistically significant inhibition of macrophage IL-1 release”. Also, in assay [3] (Mus musculus, Peritoneal macrophage, [LPS] 10 ng/mL, 24 hours, read-out: EC50 (LPS-induced IL-1 release suppressed by 50%)), the half-maximal effective concentration (EC50) came to 27 µM. In addition, the “effect on proliferation of S112 cells treated with recombinant human MIF (FIG. 12)” value in assay [4] (0.013-1.3 μM, six separate experiments) was “marked inhibitory effect”. The inhibition at 0.13 µM in assay [4] (Homo sapiens, Fibroblast, concentration 0.13 μM, rhMIF 50 ng/ml, S112 cells, read-out: % inhibition of proliferation compared to vehicle plus rhMIF-treated cells) was determined as 47%.
